Data taken from patent US20160318866A1, “SUBSTITUTED BIPIPERIDINYL DERIVATIVES” (Bayer Pharma Aktiengesellschaft, priority 2013, published 2016).

Tests used:
ZDF rat = experiment: Measurement of blood flow and blood pressure in rats (ZDF rats); type: in vivo; details: for Change in the femoral flow in %: ZDF rat, steady state, 32 min after start, vs initial flow, mean
Description: Wistar rats (Hsd Cpb:Wu) of a weight of 250-350 g or ZDF rats (ZDF/Crl-Lepr fa/fa) of a weight of 330-520 g were anaesthetized using 2.5% isoflurane in an oxygen/laughing gas mixture (40:60). To determine the blood flow in the carotid artery and the femoral artery, the anaesthetized rat was brought into a supine position, and the left carotid artery and the right femoral artery are then carefully exposed. Blood flow was measured by placing flow probes (Transonic Flowprobe) at the vessels. By introducing a PE50 artery catheter into the left femoral artery, blood pressure and heart rate were determined (Transducer Ref. 5203660: from Braun CH). The substances were administered as a bolus injection or a continuous infusion via a venous catheter in the left femoral vein.
Following the preparation of the animals, there was a 5 min baseline interval. Infusion of the AR alphα2C receptor antagonist was then started. In the steady state (32 min after the start of the experiment), the femoral flow was determined in relation (% difference) to the initial flow.

adult female Wistar rats = experiment: Radiotelemetric measurement of blood pressure and heart rate of conscious rats; type: in vivo, rat; details: 5 and 15 mg/kg, oral, telemetry over 24 hours
From the text: A commercially available telemetry system from Data Sciences International DSI, USA, was employed for the measurements on conscious rats described below. The system consists of 3 main components: (1) implantable transmitters (Physiotel® telemetry transmitter), (2) receivers (Physiotel® receiver), which are linked via a multiplexer (DSI Data Exchange Matrix) to a (3) data acquisition computer. The telemetry system makes it possible to continuously record blood pressure, heart rate and body motion of conscious animals in their usual habitat.
The studies were conducted on adult female Wistar rats with a body weight of >200 g. After transmitter implantation, the experimental animals were housed singly in type III Makrolon® cages. They had free access to standard feed and water. The day/night rhythm in the test laboratory was set by changing the illumination of the room.
The telemetry transmitters used (PA-C40, DSI) were surgically implanted under aseptic conditions in the experimental animals at least 14 days before the first experimental use.
For the implantation, the fasted animals were anaesthetized with isoflurane (IsoFlo®, Abbott, initiation 5%, maintenance 2%) and shaved and disinfected over a large area of their abdomens. […]
Each of the instrumented rats living in the system was assigned a separate receiving antenna (RPC-1 Receiver, DSI). […] The signals emitted were detected online by a data acquisition system (Dataquest™ A.R.T. for Windows, DSI) and processed accordingly.
In the standard procedure, the following were measured for 10-second periods in each case: (1) systolic blood pressure (SBP), (2) diastolic blood pressure (DBP), (3) mean arterial pressure (MAP), (4) heart rate (HR) and (5) activity (ACT). These parameters were measured over 24 hours after administration.
The acquisition of measurements was repeated under computer control at 5-minute intervals. The source data obtained as absolute values were corrected in the diagram with the currently measured barometric pressure (Ambient Pressure Reference Monitor, APR-1, DSI). […]

[1] = anaesthetized rats, same experiment as femoral flow, strain not specified

SMILES: CC1CCCN(C2CCN(C(=O)c3ccc(C(C)(C)O)cc3)CC2)C1 (single isomer, unassigned) [Example 8, [4-(1-Hydroxy-1-methylethyl)phenyl)](3-methyl-1,4′-bipiperidin-1′-yl)methanone, (−)-enantiomer]
- Change in the femoral flow in % (ZDF rat; 3 μg/kg/min infusion): 12.0 (n = 4) %
- Change in the femoral flow in % (ZDF rat; 10 μg/kg/min infusion): 127.9%
- Change in the femoral flow in % (ZDF rat; 30 μg/kg/min infusion): 144.4%
- blood pressure (ZDF rat; [1]): no changes
- heart rate (ZDF rat; [1]): no changes
- blood pressure (adult female Wistar rats): without any effect on blood pressure
- heart rate (adult female Wistar rats): slight transient increase of the heart rate
